In the NIST ThermoML archive (doi:10.1021/je4000857):
Where “and” joins values, the source holds several entries; their conditions need not be identical. Equal entries are not always repeated. ± gives the expanded uncertainty stated by the source.

Conditions: Liquid

Row | Compound | vapor or sublimation pressure (264.05 K) | vapor or sublimation pressure (271.05 K) [kPa] | vapor or sublimation pressure (278.05 K) [kPa] | vapor or sublimation pressure (303.04 K) [kPa] | vapor or sublimation pressure (253.3 K) [kPa] | vapor or sublimation pressure (258.11 K) [kPa] | vapor or sublimation pressure (263.23 K) [kPa] | vapor or sublimation pressure (268.17 K) [kPa] | vapor or sublimation pressure (282.74 K) [kPa] | vapor or sublimation pressure (292.81 K) [kPa] | vapor or sublimation pressure (308.04 K) [kPa] | vapor or sublimation pressure (312.78 K) [kPa] | vapor or sublimation pressure (322.96 K) [kPa]
1 | CC [ethane] | 1862 ± 36 kPa | 2275 ± 43 | 2700 ± 51 | 4600 ± 87 | – | – | – | – | – | – | – | – | –
2 | FC(F)(F)C(F)(F)C(F)(F)F [octafluoropropane] | 298 ± 4 kPa and 297 ± 4 kPa | 383 ± 4 | 483 ± 5 | 995 ± 10 | 194 ± 3 | 238 ± 3 | 287 ± 3 | 343 ± 4 | 553 ± 6 | 743 ± 7 | 1124 ± 11 | 1256 ± 12 | 1604 ± 16
